Assay results from patent US12441768B2, “Compositions and methods for treating endometriosis” (EndoMet Biosciences, Inc., priority 2018, dated 2025).
Where a SMILES comes first, the peptide text is derived from it. The star is where a group is joined. Bn = c1ccc(C*)cc1

Assays:
[1] = molecular target: Wnt-responsive promoter (TCF/LEF); assay: Wnt-dependent luciferase reporter assay; format: cell-based, murine
In short: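 EC50 (uM) derived from inhibition of luminescence in Wnt3a-stimulated murine 3T3 cells expressing luciferase under a TCF/LEF promoter, with peptides added across a concentration range and vehicle as control.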

[2] = % Viability non-Wnt responsive cells
β-catenin = molecular target: T1, β-catenin (Homo sapiens, UniProt P35222); assay: KD50 measurement using competitive fluorescence polarization (FP) with labelled TCF4; format: binding; conditions: fluorescence polarization, β-catenin; for Kd: read-out: β-Cat FP KD
T1 sequence (P35222 1-781): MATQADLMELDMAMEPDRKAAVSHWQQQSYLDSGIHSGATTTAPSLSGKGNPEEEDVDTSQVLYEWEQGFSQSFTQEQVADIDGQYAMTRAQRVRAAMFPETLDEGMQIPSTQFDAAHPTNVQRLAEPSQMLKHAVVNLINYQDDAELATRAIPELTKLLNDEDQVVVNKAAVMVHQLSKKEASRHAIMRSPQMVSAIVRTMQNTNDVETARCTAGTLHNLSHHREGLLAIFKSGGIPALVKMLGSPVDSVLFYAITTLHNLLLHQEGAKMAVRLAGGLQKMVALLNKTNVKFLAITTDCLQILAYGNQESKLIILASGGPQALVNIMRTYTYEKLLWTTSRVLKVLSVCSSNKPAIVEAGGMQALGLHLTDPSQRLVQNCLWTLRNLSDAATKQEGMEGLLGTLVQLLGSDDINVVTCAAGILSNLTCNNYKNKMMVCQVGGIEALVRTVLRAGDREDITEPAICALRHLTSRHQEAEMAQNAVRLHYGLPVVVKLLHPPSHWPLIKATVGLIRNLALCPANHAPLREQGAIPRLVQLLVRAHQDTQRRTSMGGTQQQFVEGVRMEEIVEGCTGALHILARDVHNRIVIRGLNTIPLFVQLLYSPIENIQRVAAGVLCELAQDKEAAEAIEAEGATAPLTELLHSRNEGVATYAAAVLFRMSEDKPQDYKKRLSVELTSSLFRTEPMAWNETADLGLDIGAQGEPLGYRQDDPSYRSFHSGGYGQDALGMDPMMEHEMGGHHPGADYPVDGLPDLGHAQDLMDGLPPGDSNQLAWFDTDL
In short: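 5 nM labelled TCF4 was combined with 100 nM β-catenin at room temperature, then inhibitor was titrated in serial dilutions from 10 nM to 30 uM. Polarization was read at excitation 470 nm, emission 520 nm; displacement lowers the signal. Three independent experiments.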

| Structure (SMILES) | EC50 [1] | β-Cat FP Hill slope (β-catenin) | Kd (β-catenin) | viability [2] |
| --- | --- | --- | --- | --- |
| CC[C@H](C)[C@H](NC(=O)[C@H](CC(C)C)NC(=O)[C@H](Cc1ccccc1)NC(=O)[C@H](Cc1c[nH]c2ccccc12)NC(=O)[C@@H](N)CC(=O)O)C(=O)N[C@@H](CS)C(=O)N[C@@H](Cc1ccccc1)C(=O)N[C@@H](Cc1c[nH]c2ccccc12)C(=O)NCC(=O)O [compound 142] (H-DWFLICFWG-OH) | < 7.5 µM | 1.15 | < 0.4 µM | 108% |
| CC[C@H](C)[C@H](NC(=O)[C@H](CC(C)C)NC(=O)[C@H](Cc1ccccc1)NC(=O)[C@H](Cc1c[nH]c2ccccc12)NC(=O)[C@@H](N)CCSC)C(=O)N[C@@H](CCC(N)=O)C(=O)N[C@@H](Cc1ccccc1)C(=O)N[C@@H](Cc1c[nH]c2ccccc12)C(=O)NCC(=O)O [compound 143] (H-MWFLIQFWG-OH) | 7.5 to 15 µM | – | > 30 µM | 104% |
| CC[C@H](C)[C@H](NC(=O)[C@H](CC(C)C)NC(=O)[C@@H](NC(=O)[C@H](Cc1c[nH]c2ccccc12)NC(=O)[C@@H](N)CCSC)[C@@H](C)CC)C(=O)N[C@@H](CCO)C(=O)N[C@@H](Cc1ccccc1)C(=O)N[C@@H](Cc1c[nH]c2ccccc12)C(=O)NCC(=O)O [compound 144] (HELM PEPTIDE1{M.W.I.L.I.[O=C([C@H](CCO)N[*:1])[*:2]].F.W.G}$$$$V2.0) | < 7.5 µM | – | > 30 µM | 106% |
| CC[C@H](C)[C@H](NC(=O)[C@H](CC(C)C)NC(=O)[C@@H](NC(=O)[C@H](Cc1c[nH]c2ccccc12)NC(=O)[C@@H](N)CCSC)[C@@H](C)CC)C(=O)N[C@@H](COCc1ccccc1)C(=O)N[C@@H](Cc1ccccc1)C(=O)N[C@@H](Cc1c[nH]c2ccccc12)C(=O)NCC(=O)O [compound 146] (H-MWILIS(Bn)FWG-OH) | > 30 µM | – | > 30 µM | 99.1% |
| CC[C@H](C)[C@@H]1NC(=O)[C@H](CC(C)C)NC(=O)[C@H](Cc2ccccc2)NC(=O)[C@H](Cc2c[nH]c3ccccc23)NC(=O)[C@H](CCSC)NC(=O)CCCNC(=O)C[C@@H](C(=O)O)NC(=O)[C@H](Cc2c[nH]c3ccccc23)NC(=O)[C@H](Cc2ccccc2)NC(=O)[C@H](CS)NC1=O [compound 147] (HELM PEPTIDE1{[O=C(CCCN[*:1])[*:2]].M.W.F.L.I.C.F.W.D}$PEPTIDE1,PEPTIDE1,1:R1-10:R3$$$V2.0) | > 30 µM | – | > 30 µM | 105% |
| CC[C@H](C)[C@H](NC(=O)[C@H](CC(C)C)NC(=O)[C@H](Cc1ccccc1)NC(=O)[C@H](Cc1c[nH]c2ccccc12)NC(=O)[C@@H](N)CCSC)C(=O)N[C@@H](CCC(N)=O)C(=O)N[C@@H](Cc1ccccc1)C(=O)N[C@@H](Cc1ccc(O)cc1)C(=O)NCC(=O)O [compound 149] (H-MWFLIQFYG-OH) | 7.5 to 15 µM | 0.75 | 0.4 to 1 µM | 104% |
| CC[C@H](C)[C@H](NC(=O)[C@H](Cc1c[nH]c2ccccc12)NC(=O)[C@@H](N)CCSC)C(=O)N[C@@H](CC(C)C)C(=O)N[C@H](C(=O)N[C@H](C(=O)N[C@@H](Cc1ccccc1)C(=O)N[C@@H](Cc1c[nH]c2ccccc12)C(=O)NCC(=O)O)[C@@H](C)O)[C@@H](C)CC [compound 150] (H-MWILITFWG-OH) | < 7.5 µM | – | > 30 µM | 99.8% |
| CC[C@H](C)[C@H](NC(=O)[C@H](CC(C)C)NC(=O)[C@H](Cc1ccccc1)NC(=O)[C@H](Cc1c[nH]c2ccccc12)NC(=O)[C@@H](N)CCSC)C(=O)N[C@@H](CCCCN)C(=O)N[C@@H](Cc1ccccc1)C(=O)N[C@@H](Cc1ccc(O)cc1)C(=O)NCC(=O)O [compound 151] (H-MWFLIKFYG-OH) | 15 to 22.5 µM | 0.7 | 0.4 to 1 µM | 107% |
| CC[C@H](C)[C@H](NC(=O)[C@H](CC(C)C)NC(=O)[C@@H](NC(=O)[C@H](Cc1c[nH]c2ccccc12)NC(=O)[C@@H](N)CCSC)[C@@H](C)CC)C(=O)N[C@@H](CO)C(=O)N[C@@H](Cc1ccc(O)cc1)C(=O)N[C@@H](Cc1c[nH]c2ccccc12)C(=O)NCC(=O)O [compound 152] (H-MWILISYWG-OH) | < 7.5 µM | – | > 30 µM | 114% |
| CC[C@H](C)[C@H](NC(=O)[C@H](CC(C)C)NC(=O)[C@H](Cc1ccccc1)NC(=O)[C@H](Cc1c[nH]c2ccccc12)NC(=O)[C@@H](N)CCSC)C(=O)N[C@@H](CS)C(=O)N[C@@H](Cc1ccccc1)C(=O)N[C@@H](Cc1c[nH]c2ccccc12)C(=O)NCCCC(=O)O [compound 153] (HELM PEPTIDE1{M.W.F.L.I.C.F.W.[O=C(O)CCCN[*:1]]}$$$$V2.0) | < 7.5 µM | – | > 30 µM | 104% |
| CC[C@H](C)[C@H](NC(=O)[C@H](CC(C)C)NC(=O)[C@@H](NC(=O)[C@H](Cc1c[nH]c2ccccc12)NC(=O)[C@@H](N)CCSC)[C@@H](C)CC)C(=O)N[C@@H](CO)C(=O)N[C@@H](Cc1ccccc1)C(=O)N[C@@H](Cc1c[nH]c2ccccc12)C(=O)NCC(=O)O [compound 155] (H-MWILISFWG-OH) | > 30 µM | – | > 30 µM | 97% |

Further lines, with some results ahead:

| EC50 [1] | β-Cat FP Hill slope (β-catenin) | Kd (β-catenin) | Structure (SMILES) | viability [2] |
| --- | --- | --- | --- | --- |
| 15 to 22.5 µM | 0.7 | – | CC[C@H](C)[C@H](NC(=O)[C@H](CC(C)C)NC(=O)[C@H](Cc1ccccc1)NC(=O)[C@H](Cc1c[nH]c2ccccc12)NC(=O)[C@@H](N)CCSC)C(=O)N[C@@H](CS)C(=O)N[C@@H](Cc1cn(C)cn1)C(=O)N[C@@H](Cc1c[nH]c2ccccc12)C(=O)NCC(=O)O [compound 140] (HELM PEPTIDE1{M.W.F.L.I.C.[Cn1cnc(C[C@H](N[*:1])C(=O)[*:2])c1].W.G}$$$$V2.0) | 102% |
| 7.5 to 15 µM | – | > 30 µM | CCC[C@H](N)C(=O)N[C@@H](Cc1c[nH]c2ccccc12)C(=O)N[C@@H](Cc1ccccc1)C(=O)N[C@@H](CC(C)C)C(=O)N[C@H](C(=O)N[C@@H](CS)C(=O)N[C@@H](Cc1ccccc1)C(=O)N[C@@H](Cc1c[nH]c2ccccc12)C(=O)NCC(=O)O)[C@@H](C)CC [compound 141] (HELM PEPTIDE1{[Nva].W.F.L.I.C.F.W.G}$$$$V2.0) | 100% |
| 7.5 to 15 µM | 0.7 | 1 to 10 µM | CC[C@H](C)[C@H](NC(=O)[C@H](CC(C)C)NC(=O)[C@H](Cc1ccccc1)NC(=O)[C@H](Cc1c[nH]c2ccccc12)NC(=O)[C@@H](N)CCSC)C(=O)N[C@@H](CS)C(=O)N[C@@H](Cc1c[nH]cn1)C(=O)N[C@@H](Cc1c[nH]c2ccccc12)C(=O)NCC(=O)O [compound 145] (H-MWFLICHWG-OH) | 107% |
| 15 to 22.5 µM | – | > 30 µM | CC[C@H](C)[C@H](NC(=O)[C@H](CC(C)C)NC(=O)[C@H](Cc1ccccc1)NC(=O)[C@H](Cc1c[nH]c2ccccc12)NC(=O)[C@@H](N)CCSC)C(=O)N[C@@H](CS)C(=O)N[C@@H](Cc1ccccc1)C(=O)N[C@@H](Cc1c[nH]c2ccccc12)C(=O)NCC(=O)O [compound 154] (H-MWFLICFWG-OH) | 103% |
| < 7.5 µM | – | > 30 µM | CC[C@H](C)[C@H](NC(=O)[C@H](CC(C)C)NC(=O)[C@H](C)NC(=O)[C@H](Cc1c[nH]c2ccccc12)NC(=O)[C@@H](N)CCSC)C(=O)N[C@@H](CO)C(=O)N[C@@H](Cc1ccccc1)C(=O)N[C@@H](Cc1c[nH]c2ccccc12)C(=O)NCC(=O)O [compound 156] (H-MWALISFWG-OH) | 102% |
